From BigSolDB 2.1

CC1=C(/C=C/C(C)=C/C=C/C(C)=C/C=C/C=C(C)/C=C/C=C(C)/C=C/C2=C(C)C(=O)CCC2(C)C)C(C)(C)CCC1=O
solubility (mole fraction)
Settings	293.15 K	298.15 K	303.15 K	308.15 K	313.15 K	318.15 K	323.15 K	333.15 K	343.15 K
in acetone	1.95e-05	2.45e-05	3.1e-05	3.72e-05	4.22e-05	4.94e-05	–	–	–
in cyclohexane	1.27e-05	–	1.33e-05	–	1.38e-05	–	1.48e-05	1.71e-05	2.06e-05
in ethanol	4.5e-06	–	5.6e-06	–	6.35e-06	–	7.48e-06	8.72e-06	9.9e-06
in ethyl acetate	2.71e-05	–	3.67e-05	–	5.43e-05	–	8.58e-05	0.000144	0.000256
in methanol	2.61e-06	–	2.93e-06	–	3.27e-06	–	3.77e-06	4.53e-06	–
in toluene	0.000118	–	0.000146	–	0.000171	–	0.00019	0.000202	0.000208
